The target in one data set is T1, Human DcpS (Homo sapiens, UniProt Q96C86).
T1 construct: made in house; host or cells: Escherichia coli
T1 sequence (Q96C86 1-337): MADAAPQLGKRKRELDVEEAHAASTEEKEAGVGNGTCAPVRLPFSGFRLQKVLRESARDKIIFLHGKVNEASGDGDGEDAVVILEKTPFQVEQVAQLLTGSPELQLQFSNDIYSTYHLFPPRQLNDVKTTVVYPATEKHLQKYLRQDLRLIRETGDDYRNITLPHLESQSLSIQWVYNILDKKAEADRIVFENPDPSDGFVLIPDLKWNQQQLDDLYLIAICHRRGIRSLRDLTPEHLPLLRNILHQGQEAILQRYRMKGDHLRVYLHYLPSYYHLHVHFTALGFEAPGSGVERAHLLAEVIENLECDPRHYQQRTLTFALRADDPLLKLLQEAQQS
Briefly: Assay of susceptibility to DcpS (RP HPLC). It is filed as biochemical. A digest of the protocol:
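E. coli-expressed human DcpS reacted with 40 μM cap analog at 30° C in 50 mM Tris-HCl pH 7.9, 20 mM MgCl2, 60 mM (NH4)2SO4. Samples taken at 10, 30, 60 and 120 min, heat-inactivated, and analysed by RP HPLC (methanol gradient in 0.1 M KH2PO4 pH 6.0).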

The test system of data set [1] is rabbit reticulocyte lysate system. Briefly: In vitro translation efficiency of capped luciferase mRNA, method I transcripts. Type of data set: biochemical. Conditions: for Translation efficiency in comparison with m^7GpppG-LUC mRNA, Experiment No. 2: experiment 2; for Translation efficiency in comparison with m^7GpppG-LUC mRNA, Experiment No. 3: experiment 3; for Translation efficiency in comparison with m^7GpppG-LUC mRNA, Experiment No. 4: experiment 4; for Translation efficiency in comparison with m^7GpppG-LUC mRNA, Mean: mean of experiments; for In vitro translational efficiency, method I: relative to m^7GpppG-capped luciferase mRNA = 1.0. How it is done: A DNA template for in vitro transcription was synthesized by PCR from the plasmid SP6p-5′UTR β-globin-LUCiferase. The template contained the SP6 promoter followed by the 5′-UTR sequence of rabbit β-globin mRNA and the entire firefly luciferase mRNA coding region. A typical in vitro transcription reaction mixture (50 μl) contained SP6 transcription buffer (Fermentas, cat. no. EP0131), 2 μg of DNA template, 2 U/μl RiboLock Ribonuclease Inhibitor (Fermentas), 2 mM each of ATP, CTP, and UTP, 0.1 mM GTP, and 1 mM dinucleotide cap analog. The reaction mixture was incubated at 37° C. for 5 min before the addition of SP6 RNA polymerase (Fermentas) to a final concentration of 2 U/μl. After 30 min of incubation at 37° C., GTP was added to a final concentration of 1 mM, and the reaction continued for an additional 90 min. The reaction mixtures were then treated with 1 U of DNase RQ1 (RNAse-free, Promega) per μg of template DNA in transcription buffer at 37° C. for 20 min. RNA transcripts were purified on DEPC-treated Sephadex G-50 spin columns (Pharmacia). The integrity of transcripts was confirmed by electrophoresis on a non-denaturating, 1% agarose gel. Concentrations were determined spectrophotometrically. The transcripts were stored at −80° C. until used.
A micrococcal nuclease-treated rabbit reticulocyte lysate system (Flexi Rabbit Reticulocyte Lysate System, Promega) was used for in vitro translation. Translation reactions were performed in 10 μl for 60 min at 30° C. A typical reaction mixture contained 40% reticulocyte lysate, the 20 “standard” amino acids (0.01 mM each), MgCl2 (1.2 mM), potassium acetate (170 mM), and mRNA (five different concentrations of each transcript, ranging from 0.25 to 4 μg/ml). Luciferase activity was measured in a luminometer (Glomax, Promega). Linear regression was used to fit the data points (luciferase activity versus concentration of mRNA transcript), and translational efficiency was defined as the slope of this line. The relative translational efficiencies of the test mRNAs were compared to that of m^7GpppG-capped luciferase mRNA, the latter being defined as 1.0.

Data set [2] can be described thus: Chemical stability in solution and on storage. It is filed as physicochemical. Here is the method:
FIG. 5 depicts the synthesis of m2^7,2′-OGppSepG. The selenophosphate (PSeO3^−3) was prepared by a modification of the method described in R. Glass et al., “Selenophosphate,” Meth. Enzymol., vol. 252, pp. 309-315 (1995). Trimethylsilyl phosphite was treated with selenium in pyridine to give trimethylsilyl selenophosphate, which was then desilylated by methanol in the presence of triethylamine to give the selenophosphate triethylammonium salt. This compound was coupled with the imidazolide derivative of 7,2′-O-dimethylguanosine 5′-monophosphate (m2^7,2′-OGMP-Im) to give 7,2′-O-dimethylguanosine 5′-O-(2-selenodiphosphate) (m2^7,2′-OGDPβSe). […] The reaction was very rapid; essentially 100% conversion of m2^7,2′-OGMP-Im into m2^7,2′-OGDPβSe was observed by RP HPLC after 15 min. […] Thus, care was taken to maintain the pH at 7 or above during purification of m2^7,2′-OGDPβSe, which allowed the product to be isolated with 80% yield after ion-exchange chromatography. The m2^7,2′-OGDPβSe was then coupled with the imidazolide derivative of GMP in the presence of excess ZnCl2. Two peaks were observed by RP HPLC, corresponding to two m2^7,2′-OGppSepG diastereomers, which were designated D1 and D2 according to their elution order. However, the coupling proceeded slowly, and complete disappearance of m2^7,2′-OGDPβSe took about two days. The extended reaction time allowed partial hydrolysis of m2^7,2′-OGDPβSe to m2^7,2′-OGMP, and only a moderate reaction yield (40% conversion by HPLC, 25% isolated). The diastereomeric mixture of m2^7,2′-OGppSepG after isolation by ion-exchange chromatography was successfully resolved into pure diastereomers by RP HPLC. The products were characterized by mass spectrometry, ^1H NMR, and ^31P NMR to confirm structures and homogeneity.

The mark [3] stands for this setting: 40 μM cap analog, 30° C., up to 120 min.

`Cn1c[n+]([C@@H]2O[C@H](COP(=O)(O)OP(=O)(O)OP(=O)(O)OC[C@H]3O[C@@H](n4cnc5c(=O)[nH]c(N)nc54)[C@H](O)[C@@H]3O)[C@@H](O)[C@H]2O)c2nc(N)[nH]c(=O)c21` [m^7GpppG, m^7G(5′)ppp(5′)G, reference compound]: on Human DcpS (setting [3]), the “Susceptibility to DcpS” value is reported as “hydrolyzed”. Also, at Human DcpS (Table 3), the “Susceptibility to DcpS” value was “hydrolyzed”. In addition, the “Translation efficiency in comparison with m^7GpppG-LUC mRNA, Experiment No. 1” value in data set [1] (experiment 1) came out at 1.00. Besides, in data set [1], the “Translation efficiency in comparison with m^7GpppG-LUC mRNA, Experiment No. 2” value is recorded as 1.00; the “Translation efficiency in comparison with m^7GpppG-LUC mRNA, Experiment No. 3” value came to 1.00; the “Translation efficiency in comparison with m^7GpppG-LUC mRNA, Experiment No. 4” value stood at 1.00; the “Translation efficiency in comparison with m^7GpppG-LUC mRNA, Mean” value amounted to 1.00. Besides, in data set [1], the “In vitro translational efficiency, method I” value was 1.00.
m^7GppBH3pm^7G: at Human DcpS (setting [3]), the “Susceptibility to DcpS” value was “resistant”. Besides, in data set [1], the “Translation efficiency in comparison with m^7GpppG-LUC mRNA, Experiment No. 2” value was 2.63; the “Translation efficiency in comparison with m^7GpppG-LUC mRNA, Experiment No. 3” value was 2.91; the “Translation efficiency in comparison with m^7GpppG-LUC mRNA, Experiment No. 4” value stood at 2.89; the “Translation efficiency in comparison with m^7GpppG-LUC mRNA, Mean” value worked out at 2.81. The “In vitro translational efficiency, method I” value in data set [1] came to 2.81 ± 0.16.
Take `CO[C@@H]1[C@H](O)[C@@H](COP(=O)(O)OP(O)(=[Se])OP(=O)(O)OC[C@H]2O[C@@H](n3cnc4c(=O)[nH]c(N)nc43)[C@H](O)[C@@H]2O)O[C@H]1n1c[n+](C)c2c(=O)[nH]c(N)nc21` (single isomer, unassigned) [m2^7,2′-OGppSepG (D2), m2^7,2′-OGppSepG]: the “Susceptibility to DcpS” value on Human DcpS (Table 3) was “hydrolyzed”. Further, the “Stability in aqueous solution” value in data set [2] is listed as “stable in aqueous solution”.
For `CO[C@@H]1[C@H](O)[C@@H](COP(=O)(O)OP(O)(=[Se])OP(=O)(O)OC[C@H]2O[C@@H](n3cnc4c(=O)[nH]c(N)nc43)[C@H](O)[C@@H]2O)O[C@H]1n1c[n+](C)c2c(=O)[nH]c(N)nc21` (single isomer, unassigned) [m2^7,2′-OGppSepG (D1), m2^7,2′-OGppSepG], in that order: “hydrolyzed” and “stable in aqueous solution”.

The record behind these values is US8519110B2, “mRNA cap analogs” (Board of Supervisors of Louisiana State University And …, priority 2008, dated 2013).
